Where two headings read alike, the source gives them in different places. Numbered stars: 1 amine (or outer) side, 2 acyl side, 3 side chain; on linkers, the order of the positions; unused ones are H or OH. Square brackets hold non-standard residues; d marks the D form. Ends that are not written are not given here. Peptide text beside a SMILES is read from it. * marks the point of attachment. X2 = O=C(OCC1c2cc(N[*:1])ccc2-c2ccc(S(=O)(=O)O)cc21)[*:2]; X1 = N[C@@H](CSC1CC(=O)N(CCC(=O)*)C1=O)C(=O)O; Nle = CCCC[C@H](N)C(=O)O

Series [1] can be described thus: PK after single IV injection in rats. The format is in vivo. The note with it: rats. An excerpt: Blood samples were collected at 0.5, 2, 4, 8, 12, 24, 36, 48, 72, 96- and 120-hours post-dose administration.
The nature of series [2]: 2-compartmental pharmacokinetic modelling (MONOLIX 2018R2). The format is in vivo, rat. The note with it: for half-life: rat, in vivo. As to the method:
An in-depth PK modeling was performed to address the unexpected differences in half life, distribution, and pharmacological effect between V4, Cys-FMS-V4, and Apraglutide in the rat model. The analysis was performed with MONOLIX 2018R2 suite using a 2-compartmental pharmacokinetic model. The data used in this analysis was comprised from 3 independent experiments (data is presented as their average). The concentration versus time data of V4 that was formed from the Cys-FMS-V4 conjugate (the hydrolyzed peptide) was described appropriately using the values of the pharmacokinetic parameters of V4 peptide. Thus, the disposition of the hydrolyzed V4 was identical to that of the V4 peptide following the IV and SC administration.
The pharmacokinetics of Apraglutide in our studies was determined after SC administration. […] Based on this assumption, the values of volumes of distribution and clearance (Vpept, Vss, Vbeta, and CL) were calculated for Apraglutide (Table 13). The values of the other parameters of Apraglutide in Table 14 (the rate constants and the half-lives) are not dependent on this assumption.

Series [3] relates to small intestine. The series can be described thus: Intestine weight model in rats. The format is in vivo, SD rats. The protocol:
In the pharmacology study, the conjugates were injected subcutaneously twice, on days 1 and 3 at 1 mg/kg (peptide dose) and intestine weight was performed on day 6. In addition to the PEGylated conjugates, GLP-2-Gly2 was injected at the same dose and regimen for comparison. The average of the intestine weight of each group was compared to that of the vehicle group.
In a different study, several of the PEGylated teduglutide were injected as a single dose at 1 mg/kg and the intestine weight performed on day 6.
Pharmacology and pharmacokinetic studies were performed with the most promising GLP-2 variants to evaluate their efficacy and longevity, respectively. The intestine weight model in rats was conducted to evaluate efficacy, by measuring percent increase of the intestine weight of treated animals over the vehicle group. In this study, the peptides were injected twice, on days 1 and 3 at 1 mg/kg and the intestine weight was conducted on day 6.
PEG20-FMS-V6, PEG20-Fmoc-V6 and PEG40-FMS-V6 were injected once at 1 mg/kg dose on day 1, while group D was also injected twice on days 1 & 3 at 1 mg/kg. The intestine weight was performed on day 6.
Three different reversible PEGylated GLP-2 variants using mutated peptide #4 were injected at 2 mg/kg (peptide dose), once every 6 days for 12 days. On the 12th day the intestine was weighted and compared to the control group. PEG30-FMS-V4 was injected at 0.5 mg/kg as well to evaluate the efficacy dose range.
In addition to PEG30-FMS-V4 and PEG30-Fmoc-V4 that have been pharmacology evaluated by small intestinal weight evaluation (As shown in Example 5), four other reversible PEGylated variant 4 (“V4”) conjugates and two reversible linker-V4 conjugates were synthesized. All the above were injected to 6 normal SD rats/group once at 2 mg/kg (peptide dose), while on the 6th day, animals were scarified, and the small intestine was weighted followed by histopathology evaluation. […] Therefore, slices from three areas of the intestine (duodenum, jejunum and ilium) were stained with hematoxylin and eosin and at least 7 Crypts+Villi length/slice were measured. The averaged Villi+Crypt length of each treatment group (n=6) was compared to the vehicle group (negative control) and calculated as percentage increase over vehicle.
Additional studies were conducted to evaluate the efficacy of the V4 peptide and the reversible MAL-FMS-V4. The long acting effect of V4 and the conjugates were evaluated at Day 6 and Day 10 following treatment (Study reference 15203). All test groups (n=9) were injected SC with 2 mg/kg peptide content at Day 1. At Days 6 and 10, animals were sacrificed and the small intestine underwent histopathology evaluation (6 animals for Day 6, 3 animals for Day 10). FIGS. 12 and 13 show the pharmacology effect of different V4 conjugates and Apraglutide and Glepaglutide as measured by the percent increase of small intestine weight and crypts plus villi length over vehicle, respectively.
To further evaluate the pharmacology efficacy of V4 and Cys-FMS-V4, an experiment was performed to test their acute and prolonged effect on the small intestine (Study reference 15205). In addition, V4 and Cys-FMS-V4 were administrated as a single SC injection on Day 1 at 3 different doses (0.5, 2.0 or 8.0 mg/kg peptide content, 6 rats per group) to assess the dose dependence effect. The pharmacological effect on small intestine weight and villi plus crypts length was measured at Days 3, 7 and 14, and the results are presented in FIGS. 15 and 16. […] It should be noted that this acute response was higher for V4 compared to Cys-FMS-V4 at all 3 dose levels.

Where [4] appears, read: single IV 2 mg/kg peptide content.
[5] abbreviates: SD rats, SC on days 1 and 3 at 1 mg/kg peptide dose (2 injections), intestine weight on day 6.
The mark [6] stands for this setting: single dose 1 mg/kg peptide, intestine weight on day 6, average of two studies.
Where [7] appears, read: 0.5 mg/kg peptide dose once every 6 days for 12 days, weighed on 12th day.
[8] abbreviates: 2 mg/kg peptide dose once every 6 days for 12 days, weighed on 12th day.

For the compound `CCCC[C@H](NC(=O)[C@H](CCC(=O)O)NC(=O)[C@H](CC(=O)O)NC(=O)[C@H](CO)NC(=O)[C@H](Cc1ccccc1)NC(=O)[C@H](CO)NC(=O)CNC(=O)[C@H](CCC(=O)O)NC(=O)CNC(=O)[C@H](Cc1c[nH]cn1)NC(=O)OCC1c2cc(NC(=O)CCN3C(=O)CC(SC[C@H](N)C(=O)O)C3=O)ccc2-c2ccc(S(=O)(=O)O)cc21)C(=O)N[C@@H](CC(N)=O)C(=O)N[C@H](C(=O)N[C@H](C(=O)N[C@@H](CC(C)C)C(=O)N[C@@H](CC(=O)O)C(=O)N[C@@H](CC(C)C)C(=O)N[C@@H](CC(C)C)C(=O)N[C@@H](C)C(=O)N[C@@H](C)C(=O)N[C@@H](CCCNC(=N)N)C(=O)N[C@@H](CC(=O)O)C(=O)N[C@@H](Cc1ccccc1)C(=O)N[C@H](C(=O)N[C@@H](CC(N)=O)C(=O)N[C@@H](Cc1c[nH]c2ccccc12)C(=O)N[C@@H](CC(C)C)C(=O)N[C@H](C(=O)N[C@@H](CCC(N)=O)C(=O)N[C@H](C(=O)N[C@@H](CCCCN)C(=O)N[C@H](C(=O)N[C@H](C(=O)N[C@@H](CC(=O)O)C(N)=O)[C@@H](C)O)[C@@H](C)CC)[C@@H](C)O)[C@@H](C)CC)[C@@H](C)CC)[C@@H](C)CC)[C@@H](C)O` (some centres unmarked) [Cys-FMS-V4] (X1-[X2]HGEGSFSDE[Nle]NTILDLLAARDFINWLIQTKITD-NH2), in series [1] (single IV 2 mg/kg), the “Fraction of V4 released from the conjugate (AUC ratio)” value was approximately 35%. In addition, in series [1] (setting [4]), the Cl/F_obs is given as 0.064 (μmol/kg)/(μmol/L)/h and the Vz/F_obs was 0.260 (μmol/kg)/(μmol/L). Also, in series [1] (single IV 2 mg/kg, 24 hours post injection), the “Detectability in blood after IV administration” value is “could not be detected 24 hours post injection”. Moreover, in series [2] (53.8% SC bioavailability, 67.9% hydrolyzed to V4), the “Fraction of Cys-FMS-V4 converted to V4 following SC administration” value was “approximately 36.5%”. In series [2] (Cys-FMS-V4 conjugate), the Vconj was determined as 0.119 L/kg, the “ka—conj” value is 0.0717 h⁻¹, the kconje worked out at 0.207 h⁻¹ and the kh is 0.438 h⁻¹. The Fconj in series [2] (Cys-FMS-V4 conjugate, SC bioavailability fraction) worked out at 0.538. In addition, the “% to V4” value in series [2] (absorbed Cys-FMS-V4 hydrolyzed to V4) worked out at 67.9%. Further, in series [2] (Cys-FMS-V4 conjugate, Table 15, read-out: t1/2 absorption (converted)), the half-life was 9.67 h. In series [2] (Cys-FMS-V4 conjugate, read-out: t1/2 hydrolysis (converted)), the half-life is 1.58 h. Also, the half-life in series [2] (Cys-FMS-V4 conjugate, read-out: t1/2 other pathways (converted)) was 3.35 h.

As for “PEG30-FMS-(GLP-2-Gly2): teduglutide reversibly PEGylated, PEG30 via FMS linker; heterogenous mixture of N terminus and Lys30 attachment”, in series [3] (setting [5]), the “Average Intestine weight (gr)” value amounted to 9.5 gr and the “Increase of intestine weight over vehicle (%)” value turned out to be 73%. Further, the “Increase of intestine weight over vehicle (%)” value in series [3] (setting [6]) was 34%.

With “PEG30-FMS-V4 (HGEGSFSDE[Nle]NTILDLLAARDFINWLIQTKITD-NH2; also: PEG30-FMS conjugate, place not given here)”, in series [3] (setting [7]), the “Average Intestine weight (gr)” value stood at 5.2 gr and the “Increase of intestine weight over vehicle (%)” value is given as −14%. Moreover, in series [3] (setting [8]), the “Average Intestine weight (gr)” value is 6.9 gr and the “Increase of intestine weight over vehicle (%)” value stood at 15%.

In the case of “PEG30-NRF-V4 (HGEGSFSDE[Nle]NTILDLLAARDFINWLIQTKITD-NH2; also: PEG30-NRF conjugate, place not given here)”, in series [3] (normal SD rats, injected once at 2 mg/kg peptide dose, 6th day), the “Avg. small intestine weight (gr)” value amounted to 4.0 gr. In series [3] (normal SD rats, injected once at 2 mg/kg peptide dose, 6th day, MAL-FMS-V4 compared to Vehicle 2), the “Small intestine weight increase over vehicle (%)” value was −8.0%.

Take “PEG40-EMCS-(GLP-2-Gly2): non-reversible PEGylation (PEG40, EMCS) conjugated to GLP-2-Gly2”: in series [3] (setting [5]), the “Average Intestine weight (gr)” value came to 6.6 gr and the “Increase of intestine weight over vehicle (%)” value stood at 19%.

In the case of “PEG40-FMS-(GLP-2-Gly2): teduglutide reversibly PEGylated, PEG40 via FMS linker; heterogenous mixture of N terminus and Lys30 attachment”, in series [3] (setting [5]), the “Average Intestine weight (gr)” value was found to be 9.3 gr. For the same compound, the “Increase of intestine weight over vehicle (%)” value is reported as 70% in series [3] (setting [5]) and 27% in series [3] (setting [6]).

For “PEG40-Fmoc-(GLP-2-Gly2): teduglutide reversibly PEGylated, PEG40 via Fmoc linker; heterogenous mixture of N terminus and Lys30 attachment”, the “Average Intestine weight (gr)” value came to 6.9 gr in series [3] (setting [8]) and 9.4 gr in series [3] (setting [5]). In addition, the “Increase of intestine weight over vehicle (%)” value is recorded as 14% in series [3] (setting [8]), 72% in series [3] (setting [5]) and 31% in series [3] (setting [6]).

On to “PEG(Branch20)-FMS-(GLP-2-Gly2): teduglutide reversibly PEGylated with branched PEG via FMS linker; tables say Branch20, b275 Branched30”, for which, in series [3] (setting [5]), the “Average Intestine weight (gr)” value was 7.8 gr and the “Increase of intestine weight over vehicle (%)” value was determined as 42%.

In the case of “PEGBranched40-FMS-(GLP-2-Gly2): teduglutide reversibly PEGylated with branched PEG40 via FMS linker”, in series [3] (setting [5]), the “Average Intestine weight (gr)” value is reported as 8.1 gr and the “Increase of intestine weight over vehicle (%)” value was determined as 48%. The “Increase of intestine weight over vehicle (%)” value in series [3] (setting [6]) was determined as 22%.

Source of the values: US20200254065A1, “LONG-ACTING GLP-2 ANALOGS” (OPKO Biologics Ltd., priority 2019, published 2020).
